Data as given in ChEMBL document CHEMBL5223182, “Inhibition of HIV-1 Protease by a Boronic Acid with High Oxidative Stability” (ACS Med Chem Lett, 2023).

Key:
[1] = molecular target: T1, Human immunodeficiency virus type 1 protease (Human immunodeficiency virus 1, UniProt Q72874); test: Inhibition of HIV-1 protease by fluorescence assay
[2] = Oxidative stability of compound in PBS by UV visible spectrophotometer analysis; assay type: physicochemical; conditions: buffer
[3] = Oxidative stability in sodium phosphate buffer assessed as relative rate constant; assay type: physicochemical
[4] = Oxidative stability in sodium phosphate buffer assessed as observed rate constant; assay type: physicochemical
[5] = molecular target: T1, Human immunodeficiency virus type 1 protease; test: Inhibition of HIV-1 protease
Protease = Protease (Human immunodeficiency virus 1, UniProt Q9YQ12, D30N); test: Inhibition of HIV-1 protease D30N mutant
Chain of Protease (Q9YQ12 entry or part of it D30N): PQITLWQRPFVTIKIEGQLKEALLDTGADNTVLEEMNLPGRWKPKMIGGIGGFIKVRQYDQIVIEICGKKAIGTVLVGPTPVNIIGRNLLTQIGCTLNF

| SMILES | Ki [1] | K [2] | K [3] | K [4] | Ki [5] | Ki (Protease) |
| --- | --- | --- | --- | --- | --- | --- |
| CC(C)CN(C[C@@H](O)[C@H](Cc1ccccc1)NC(=O)O[C@H]1CO[C@H]2OCC[C@H]21)S(=O)(=O)c1ccc(B(O)O)cc1 | 0.5 pM | 2.4 M⁻¹ s⁻¹ | 1 | 0.12 M⁻¹ s⁻¹ |  |  |
| CC(C)CN(C[C@@H](O)[C@H](Cc1ccccc1)NC(=O)O[C@H]1CO[C@H]2OCC[C@H]21)S(=O)(=O)c1ccc2c(c1)C(=O)O[B-]2(O)O |  | 0.00015 M⁻¹ s⁻¹ | 0.021 | 0.0026 M⁻¹ s⁻¹ | 10 pM | 7 pM |
